Drawing on PubChem BioAssay (NCI), this text covers TGI for eight compounds.

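Protocol summary: plate cells (96-well), add compound at 5 concentrations, incubate 48 h, interpolate endpoints linearly. TGI: concentration producing complete growth inhibition.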

Some test systems named below: NCI-H23 lung; MDA-MB-231 breast; CAKI-1 renal; KM12 colon; HOP-92 NSCLC; RXF 393 renal; A549 NSCLC; EKVX NSCLC; SK-OV-3 ovarian; BT-549 breast; MOLT-4 leukemia; HOP-62 NSCLC; RPMI-8226 leukemia; MALME-3M melanoma; HCT-116 colon; MDA-N; COLO 205 colon; UACC-257 melanoma; SK-MEL-5 melanoma.
What all share (experiment): DTP human tumour cell line panel, 48 h

With `CCN1CCN(c2nc3ccc([N+](=O)[O-])cc3nc2C(=O)c2ccccc2)CC1`, the TGI in the experiment on NCI-H23 lung worked out at 34.4 µM; in the experiment on MDA-MB-231 breast, 28.7 µM; in the experiment with CAKI-1 renal, 30.5 µM; with KM12 colon, 31.8 µM; with HOP-92 NSCLC, 32.7 µM; with RXF 393 renal, 32.8 µM. Moreover, the TGI is 33.7 µM in the experiment with A549 NSCLC; 29.6 µM in the experiment with EKVX NSCLC; 41.7 µM in the experiment on SK-OV-3 ovarian; 16.9 µM in the experiment on BT-549 breast; over 100 µM in the experiment on MOLT-4 leukemia; 35.6 µM in the experiment with HOP-62 NSCLC. Moreover, the TGI in the experiment on RPMI-8226 leukemia turned out to be 30.9 µM; in the experiment on MALME-3M melanoma, 28.2 µM; in the experiment on HCT-116 colon, 31.2 µM; with MDA-N, 33.9 µM; in the experiment with COLO 205 colon it was 30 µM; in the experiment with UACC-257 melanoma it was 36.7 µM.

As for `CSc1c(C#N)c(N)nc2c(N=Nc3ccc(Cl)cc3)c(N)nn12`, the TGI is 7.25 µM in the experiment with NCI-H23 lung; 4.85 µM in the experiment with MDA-MB-231 breast; 34.5 µM in the experiment with CAKI-1 renal; 11.8 µM in the experiment on KM12 colon; 8.64 µM in the experiment with HOP-92 NSCLC; 5.79 µM with RXF 393 renal. For the same compound, the TGI with A549 NSCLC was over 73.8 µM; in the experiment on EKVX NSCLC it was 11.4 µM; in the experiment with SK-OV-3 ovarian, 67.1 µM; with BT-549 breast, 9.97 µM; in the experiment with MOLT-4 leukemia, 5.47 µM; in the experiment on HOP-62 NSCLC, 28.6 µM. In addition, the TGI amounted to 7.12 µM in the experiment on RPMI-8226 leukemia; 16.4 µM in the experiment on MALME-3M melanoma; 35 µM with SK-MEL-5 melanoma; 23.4 µM in the experiment with MDA-N; 30.3 µM in the experiment with COLO 205 colon; 10.2 µM in the experiment with UACC-257 melanoma.

Regarding `COC(=O)/C=C/c1ccc2c(c1)CC1(C2)Cc2cc3c(cc2C1=O)CCC3` (configuration not stated), the TGI is over 100 µM in the experiment on MDA-MB-231 breast; over 100 µM in the experiment with CAKI-1 renal; over 100 µM in the experiment with KM12 colon; over 100 µM in the experiment on HOP-92 NSCLC; 84.9 µM in the experiment on RXF 393 renal; over 100 µM with A549 NSCLC. Moreover, the TGI with EKVX NSCLC, in the experiment with BT-549 breast, in the experiment on MOLT-4 leukemia, in the experiment on RPMI-8226 leukemia, with MALME-3M melanoma and in the experiment with HCT-116 colon was over 100 µM throughout. Further, the TGI in the experiment with SK-MEL-5 melanoma, with MDA-N, in the experiment on COLO 205 colon and in the experiment on UACC-257 melanoma was over 100 µM each time.

As for `N#CCCN(CCC#N)c1ccc(/C=C2\N=C(c3ccccc3)N(NC(N)=S)C2=O)cc1`, the TGI in the experiment with MDA-MB-231 breast, in the experiment on CAKI-1 renal, in the experiment on KM12 colon, in the experiment with HOP-92 NSCLC, with RXF 393 renal and in the experiment on A549 NSCLC was over 100 µM throughout. The TGI with EKVX NSCLC, in the experiment with SK-OV-3 ovarian, in the experiment on BT-549 breast, in the experiment on MOLT-4 leukemia, in the experiment on HOP-62 NSCLC and in the experiment with RPMI-8226 leukemia was over 100 µM each time. The TGI in the experiment on MALME-3M melanoma, with HCT-116 colon, in the experiment with SK-MEL-5 melanoma, with MDA-N, with COLO 205 colon and in the experiment on UACC-257 melanoma was over 100 µM throughout.

Consider `O=C(/C=C/c1ccc(O)c(O)c1)c1cc(O)cc(O)c1`, for which the TGI is 26.4 µM in the experiment with NCI-H23 lung; 28.8 µM in the experiment on MDA-MB-231 breast; over 100 µM in the experiment with CAKI-1 renal; 26.8 µM with HOP-92 NSCLC; 22.8 µM in the experiment on RXF 393 renal; over 100 µM with A549 NSCLC. For the same compound, the TGI in the experiment with EKVX NSCLC is 57.4 µM; in the experiment with SK-OV-3 ovarian it was 42.9 µM; with BT-549 breast it was 24.7 µM; with MOLT-4 leukemia, over 100 µM; in the experiment on HOP-62 NSCLC, 36.6 µM; with RPMI-8226 leukemia, over 100 µM. Besides, the TGI was 27.6 µM in the experiment on MALME-3M melanoma; 25.6 µM with HCT-116 colon; over 100 µM in the experiment on SK-MEL-5 melanoma; 20.5 µM in the experiment with MDA-N; 31.1 µM in the experiment on COLO 205 colon; 23 µM in the experiment on UACC-257 melanoma.

In the case of `COCOc1c(C(O[Si](C)(C)C(C)(C)C)c2cnc(Sc3ccccc3)n2C)ccc(OC)c1OC` (configuration not stated), the TGI is over 100 µM in the experiment with NCI-H23 lung; 3.19 µM in the experiment on MDA-MB-231 breast; 10.1 µM in the experiment on CAKI-1 renal; 3.93 µM in the experiment with KM12 colon; 6.36 µM in the experiment with HOP-92 NSCLC; 2.71 µM with RXF 393 renal. Also, the TGI was 4.33 µM in the experiment on A549 NSCLC; 7.65 µM in the experiment with EKVX NSCLC; 7.74 µM in the experiment with SK-OV-3 ovarian; 4.02 µM with BT-549 breast; 8.95 µM with MOLT-4 leukemia; 3.61 µM with HOP-62 NSCLC. Further, the TGI came to 4.77 µM with RPMI-8226 leukemia; 8.93 µM in the experiment on MALME-3M melanoma; 2.95 µM in the experiment with HCT-116 colon; 3.21 µM with SK-MEL-5 melanoma; 3.34 µM in the experiment with MDA-N; 4.6 µM in the experiment with UACC-257 melanoma.

On to `Cc1ccc(O)c(-c2cc(-c3cccc(Cl)c3)c(C#N)c(N)n2)c1`, for which the TGI was 77.6 µM in the experiment with NCI-H23 lung; 54.4 µM in the experiment on MDA-MB-231 breast; over 100 µM in the experiment on CAKI-1 renal; 64.2 µM in the experiment with KM12 colon; 48.1 µM in the experiment with HOP-92 NSCLC; 47.8 µM with RXF 393 renal. The TGI in the experiment on A549 NSCLC is 43.4 µM; in the experiment with EKVX NSCLC, 58.9 µM; with SK-OV-3 ovarian, 66.2 µM; with BT-549 breast it was over 100 µM; with MOLT-4 leukemia, 38.6 µM; in the experiment on HOP-62 NSCLC, 48.2 µM. In addition, the TGI in the experiment on RPMI-8226 leukemia is 48.4 µM; in the experiment on MALME-3M melanoma, 58.1 µM; in the experiment with HCT-116 colon, 30.1 µM; in the experiment with SK-MEL-5 melanoma, 29.2 µM; with MDA-N, 37.8 µM; in the experiment with COLO 205 colon, 32.3 µM.

Take `O=C(Cc1nccc2c1[nH]c1ccccc12)OC1C#CCSCC#C/C=C\1` (configuration not stated): the TGI in the experiment with MDA-MB-231 breast, with CAKI-1 renal, with KM12 colon, with HOP-92 NSCLC, in the experiment with RXF 393 renal and in the experiment with A549 NSCLC was over 100 µM in each case. In addition, the TGI in the experiment on EKVX NSCLC, in the experiment with SK-OV-3 ovarian, with BT-549 breast, with MOLT-4 leukemia, in the experiment with HOP-62 NSCLC and in the experiment on RPMI-8226 leukemia was over 100 µM throughout. Further, the TGI in the experiment on MALME-3M melanoma, in the experiment on HCT-116 colon, with SK-MEL-5 melanoma, in the experiment on MDA-N, in the experiment on COLO 205 colon and in the experiment with UACC-257 melanoma was over 100 µM throughout.
